Laboratory results as given in patent US8722849B2, “Polypeptides” (Novo Nordisk A/S, priority 2011, dated 2014).
≈ marks a conversion by molar mass, not a printed value. Where two headings read alike, the source gives them in different places. Starred links: 1 amine or outer side, 2 acyl side, 3 side chain; linkers in the order of their positions; H or OH if unused. Positions of bridges follow the written chain, without caps; N, C: chain ends. Residues, ends and D or L forms follow the SMILES beside them. *: point of attachment. C20 diacid = O=C(O)CCCCCCCCCCCCCCCCCCC(=O)*; C18 diacid = O=C(O)CCCCCCCCCCCCCCCCC(=O)*; γGlu = O=C(O)[C@H](CCC(=O)[*:2])N[*:1]

Legend:
[1] = Assay (III) ThT fibrillation assay for physical stability; format: physicochemical
In short: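 Freshly prepared formulations, pH-adjusted, with 1 μM ThT; four or eight replicates incubated at 37 °C under 960 rpm orbital shaking. Fluorescence (ex 444/em 485 nm) read every 20 min; […]. Peptide concentration measured by RP-HPLC before and after the run.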

[2] = molecular target: T1, human calcitonin receptor (Homo sapiens, UniProt P30988); test: Assay (II)a functional CRE-luciferase assay, human calcitonin receptor; format: cell-based
T1 construct: expressed in transfected cells; host or cells: BHK570
T1 sequence (P30988 25-474): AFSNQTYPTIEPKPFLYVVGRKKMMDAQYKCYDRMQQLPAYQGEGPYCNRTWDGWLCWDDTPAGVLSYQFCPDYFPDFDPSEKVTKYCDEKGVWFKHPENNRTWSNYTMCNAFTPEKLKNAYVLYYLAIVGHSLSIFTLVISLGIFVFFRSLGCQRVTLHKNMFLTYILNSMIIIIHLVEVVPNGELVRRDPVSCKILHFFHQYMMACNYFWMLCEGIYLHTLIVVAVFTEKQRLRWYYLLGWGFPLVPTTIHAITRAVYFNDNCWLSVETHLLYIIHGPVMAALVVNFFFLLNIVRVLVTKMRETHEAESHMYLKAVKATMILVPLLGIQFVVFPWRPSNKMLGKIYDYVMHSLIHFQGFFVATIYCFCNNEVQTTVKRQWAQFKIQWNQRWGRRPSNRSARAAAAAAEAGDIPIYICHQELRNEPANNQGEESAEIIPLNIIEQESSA

[3] = molecular target: T2, human amylin receptor (amylin 3(a) receptor: human calcitonin receptor + RAMP-3) (Homo sapiens, UniProt O60896+P30988); test: Assay (II)a functional CRE-luciferase assay, human amylin receptor; format: cell-based; settings: Table 2; BHK amylin 3(a)-receptor/CRE-luc cells
T2 construct: expressed in transfected cells; host or cells: BHK570
T2 sequence (P30988 25-474): T1 sequence (P30988 25-474)
T2 sequence (O60896 24-148 partner): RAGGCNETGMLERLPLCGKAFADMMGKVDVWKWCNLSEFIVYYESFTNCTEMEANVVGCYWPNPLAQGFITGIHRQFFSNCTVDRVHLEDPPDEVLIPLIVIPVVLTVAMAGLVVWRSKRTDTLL

[4] = Assay (IV) determination of solubility; format: physicochemical
In short: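 Solubility is measured across pH 3.0–8.0 by mixing a ~500 nmol/ml aqueous polypeptide stock 1:1 with 100 mM glycylglycine or bistrispropane buffers. Samples stand 18 hours at room temperature, then are centrifuged and the soluble concentration is determined by HPLC.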

[5] = bistrispropane buffer, pH 6, pH 6.0, read-out: Solubility pH 6.0
[6] = bistrispropane buffer, pH 6.5, pH 6.5, read-out: Solubility pH 6.5
[7] = bistrispropane buffer, pH 7, pH 7.0, 18 hours at room temperature, Table 3, read-out: Solubility pH 7.0
[8] = bistrispropane buffer, pH 7, pH 7.0, read-out: Solubility pH 7.0
[9] = bistrispropane buffer, pH 7.5, pH 7.5, read-out: Solubility pH 7.5
[10] = bistrispropane buffer, pH 8, pH 8.0, read-out: Solubility pH 8.0
[11] = glycylglycine buffer, pH 3, pH 3.0, read-out: Solubility pH 3.0
[12] = glycylglycine buffer, pH 4, pH 4.0, 18 hours at room temperature, Table 2, read-out: Solubility pH 4.0
[13] = glycylglycine buffer, pH 4, pH 4.0, read-out: Solubility pH 4.0
[14] = glycylglycine buffer, pH 5, pH 5.0, read-out: Solubility pH 5.0
[15] = Table 7, human calcitonin (CTa) receptor

| ThT pH 4.0 lag time ([1]; Table 8) [h] | ThT pH 4.0 lag time ([1]; Table 9) [h] | ThT pH 4.0 lag time ([1]; ThT fibrillation assay) [h] | ThT pH 4.0 lag time (h) ([1]; ThT fibrillation assay) | EC50 ([2]; Table 11, read-out: CTa receptor human EC50) [nM] | EC50 [3] [nM] | solubility at 18 h [4, 5] [µM] | solubility at 18 h [4, 6] [µM] | solubility at 18 h [4, 7] [µM] | solubility at 18 h ([4]; bistrispropane buffer, pH 7, pH 7.0, Table 8, read-out: Solubility pH 7.0) [µM] | solubility at 18 h ([4]; bistrispropane buffer, pH 7, pH 7.0, Table 9, read-out: Solubility pH 7.0) [µM] | solubility at 18 h [4, 8] [µM] | solubility at 18 h ([4]; bistrispropane buffer, pH 7.5, pH 7.5, Table 9, read-out: Solubility pH 7.5) [µM] | solubility at 18 h [4, 9] [µM] | solubility at 18 h [4, 10] [µM] | solubility at 18 h [4, 11] [µM] | solubility at 18 h [4, 12] [µM] | solubility at 18 h [4, 13] [µM] | solubility at 18 h [4, 14] [µM] | EC50 [2, 15] [nM] | SMILES |
| --- | --- | --- | --- | --- | --- | --- | --- | --- | --- | --- | --- | --- | --- | --- | --- | --- | --- | --- | --- | --- |
| >45 | >45 | >45 | >45 | 3.71 | 1.06 | > 200 | > 200 | > 200 | > 200 | > 200 | > 200 | > 200 | > 200 | > 200 | > 200 | > 200 | > 200 | > 200 |  | CC[C@H](C)[C@H](NC(=O)[C@@H]1CCCN1C(=O)CNC(=O)[C@H](Cc1ccccc1)NC(=O)[C@H](CC(N)=O)NC(=O)[C@H](CCC(N)=O)NC(=O)[C@H](CO)NC(=O)[C@H](CO)NC(=O)[C@H](Cc1c[nH]cn1)NC(=O)[C@H](CCCNC(=N)N)NC(=O)[C@H](CC(C)C)NC(=O)[C@H](Cc1ccccc1)NC(=O)[C@H](CCC(=O)O)NC(=O)[C@H](C)NC(=O)[C@H](CC(C)C)NC(=O)[C@H](CCCNC(=N)N)NC(=O)[C@H](CCC(N)=O)NC(=O)[C@@H](NC(=O)[C@H](C)NC(=O)[C@@H]1CSSC[C@H](NC(=O)[C@H](CCC(=O)O)NC(=O)[C@H](CCCNC(=N)N)NC(=O)[C@H](CCC(=O)O)NC(=O)CC[C@H](NC(=O)CCCCCCCCCCCCCCCCCCC(=O)O)C(=O)O)C(=O)N[C@@H](CC(N)=O)C(=O)N[C@@H]([C@@H](C)O)C(=O)N[C@@H](C)C(=O)N[C@@H]([C@@H](C)O)C(=O)N1)[C@@H](C)O)C(=O)N[C@@H](CC(C)C)C(=O)N1CCC[C@H]1C(=O)N1CCC[C@H]1C(=O)N[C@H](C(=O)N[C@@H](CCC(N)=O)C(=O)N[C@H](C(=O)NCC(=O)N[C@@H](CO)C(=O)N[C@@H](CCC(N)=O)C(=O)N[C@H](C(=O)N1CCC[C@H]1C(N)=O)[C@@H](C)O)C(C)C)[C@@H](C)O [Example 163, N-alpha-[(S)-4-Carboxy-4-(19-carboxynonadecanoylamino)butyryl]-Glu-Arg-[Glu1,Glu14,Arg17,Gln21,Gln31,Gln35,Pro37]-pramlintide] ({C20 diacid-γGlu}-ERECNTATCATQRLAEFLRHSSQNFGPILPPTQVGSQTP-NH2; disulfide 4-9) |
|  |  |  | 6 |  | 0.153 | > 200 | 189 (≈ 835 µg/mL) |  |  |  | 91 (≈ 402 µg/mL) |  | 136 (≈ 601 µg/mL) | > 200 | > 200 | > 200 | > 200 | > 200 | 0.0945 | CC(C)C[C@H](NC(=O)[C@H](CCCNC(=N)N)NC(=O)[C@H](CCC(N)=O)NC(=O)[C@@H](NC(=O)[C@H](C)NC(=O)[C@@H]1CSSC[C@H](NC(=O)[C@H](CCCCN)NC(=O)CC[C@H](NC(=O)CCCCCCCCCCCCCCCCCCC(=O)O)C(=O)O)C(=O)N[C@@H](CC(N)=O)C(=O)N[C@@H]([C@@H](C)O)C(=O)N[C@@H](C)C(=O)N[C@@H]([C@@H](C)O)C(=O)N1)[C@@H](C)O)C(=O)N[C@@H](C)C(=O)N[C@@H](CCC(=O)O)C(=O)N[C@@H](Cc1ccccc1)C(=O)N[C@@H](CC(C)C)C(=O)N[C@@H](Cc1c[nH]cn1)C(=O)N[C@@H](Cc1c[nH]cn1)C(=O)N[C@@H](CO)C(=O)N[C@@H](CO)C(=O)N[C@@H](CC(N)=O)C(=O)N[C@@H](CC(N)=O)C(=O)N[C@@H](Cc1ccccc1)C(=O)NCC(=O)N[C@@H](C)C(=O)N1CCC[C@H]1C(=O)N[C@@H](CC(C)C)C(=O)N[C@@H](CO)C(=O)N[C@@H](CO)C(=O)N[C@H](C(=O)N[C@@H](CC(N)=O)C(=O)N[C@H](C(=O)NCC(=O)N[C@@H](CO)C(=O)N[C@@H](Cc1c[nH]cn1)C(=O)N[C@H](C(=O)N[C@@H](Cc1ccc(O)cc1)C(N)=O)[C@@H](C)O)C(C)C)[C@@H](C)O [Example 64, N-alpha-[(S)-4-Carboxy-4-(19-carboxynonadecanoylamino)butyryl]-[Glu14,His17,Ala25,Pro26,Ser28,Ser29,His35]-pramlintide] ({C20 diacid-γGlu}-KCNTATCATQRLAEFLHHSSNNFGAPLSSTNVGSHTY-NH2; disulfide 2-7 (inferred)) |
|  |  |  | 0 |  | 0.151 | > 200 | > 200 | > 200 |  |  | > 200 |  | > 200 | > 200 | > 200 | > 200 | > 200 | 27 (≈ 120 µg/mL) | 0.527 | CC[C@H](C)[C@H](NC(=O)[C@@H]1CCCN1C(=O)CNC(=O)[C@H](Cc1ccccc1)NC(=O)[C@H](CC(N)=O)NC(=O)[C@H](CC(N)=O)NC(=O)[C@H](CO)NC(=O)[C@H](CO)NC(=O)[C@H](Cc1c[nH]cn1)NC(=O)[C@H](Cc1c[nH]cn1)NC(=O)[C@H](CC(C)C)NC(=O)[C@H](Cc1ccccc1)NC(=O)[C@H](CCC(=O)O)NC(=O)[C@H](C)NC(=O)[C@H](CC(C)C)NC(=O)[C@H](CCCNC(=N)N)NC(=O)[C@H](CCC(N)=O)NC(=O)[C@@H](NC(=O)[C@H](C)NC(=O)[C@@H]1CSSC[C@H](NC(=O)CC[C@H](NC(=O)CC[C@H](NC(=O)CCCCCCCCCCCCCCCCC(=O)O)C(=O)O)C(=O)O)C(=O)N[C@@H](CC(N)=O)C(=O)N[C@@H]([C@@H](C)O)C(=O)N[C@@H](C)C(=O)N[C@@H]([C@@H](C)O)C(=O)N1)[C@@H](C)O)C(=O)N[C@@H](CC(C)C)C(=O)N1CCC[C@H]1C(=O)N1CCC[C@H]1C(=O)N[C@H](C(=O)N[C@@H](CC(N)=O)C(=O)N[C@H](C(=O)NCC(=O)N[C@@H](CO)C(=O)N[C@@H](CC(N)=O)C(=O)N[C@H](C(=O)N[C@@H](Cc1ccc(O)cc1)C(N)=O)[C@@H](C)O)C(C)C)[C@@H](C)O [Example 49, N-alpha-{(S)-4-Carboxy-4-[(S)-4-Carboxy-4-(17-carboxyheptadecanoylamino)butyrylamino]butyryl}-[des1,Glu14,His17]-pramlintide] ({C18 diacid-γGlu-γGlu}-CNTATCATQRLAEFLHHSSNNFGPILPPTNVGSNTY-NH2; disulfide 1-6 (inferred)) |
|  |  |  | 23 |  | 0.13 | 100 (≈ 446 µg/mL) | 150 (≈ 669 µg/mL) | > 200 |  |  | > 200 |  | > 200 | > 200 | > 200 | > 200 | > 200 | > 200 | 0.199 | CC[C@H](C)[C@H](NC(=O)[C@@H]1CCCN1C(=O)CNC(=O)[C@H](Cc1ccccc1)NC(=O)[C@H](CC(N)=O)NC(=O)[C@H](CC(N)=O)NC(=O)[C@H](CO)NC(=O)[C@H](CO)NC(=O)[C@H](Cc1c[nH]cn1)NC(=O)[C@H](Cc1c[nH]cn1)NC(=O)[C@H](CC(C)C)NC(=O)[C@H](Cc1ccccc1)NC(=O)[C@H](CCC(=O)O)NC(=O)[C@H](C)NC(=O)[C@H](CC(C)C)NC(=O)[C@H](CCCNC(=N)N)NC(=O)[C@H](CCC(=O)O)NC(=O)[C@@H](NC(=O)[C@H](C)NC(=O)[C@@H]1CSSC[C@H](NC(=O)[C@H](CCCCN)NC(=O)CC[C@H](NC(=O)CCCCCCCCCCCCCCCCCCC(=O)O)C(=O)O)C(=O)N[C@@H](CC(N)=O)C(=O)N[C@@H]([C@@H](C)O)C(=O)N[C@@H](C)C(=O)N[C@@H]([C@@H](C)O)C(=O)N1)[C@@H](C)O)C(=O)N[C@@H](CC(C)C)C(=O)N1CCC[C@H]1C(=O)N1CCC[C@H]1C(=O)N[C@H](C(=O)N[C@@H](CC(N)=O)C(=O)N[C@H](C(=O)NCC(=O)N[C@@H](CO)C(=O)N[C@@H](CC(N)=O)C(=O)N[C@H](C(=O)N[C@@H](Cc1ccc(O)cc1)C(N)=O)[C@@H](C)O)C(C)C)[C@@H](C)O [Example 54, N-alpha-[(S)-4-Carboxy-4-(19-carboxynonadecanoylamino)butyryl]-[Glu10,Glu14,His17]-pramlintide] ({C20 diacid-γGlu}-KCNTATCATERLAEFLHHSSNNFGPILPPTNVGSNTY-NH2; disulfide 2-7 (inferred)) |
